# Results: patent EP0515141A1, “Novel process for the preparation of 8A-aza-8A-homoerythromycin cyclic lactams” (MERCK & CO. INC., priority 1991, dated 1992)
# Tests used:
# Experiment in all cases: liquid turbidimetric microtiter MIC assay
# Type in all cases: cell-based
# [1] = system: Streptococcus pyogenes MB 5406; settings: MB5406, brain heart infusion broth
# Source text: (§1) The antibacterial activities of compound (III) against a panel of aerobic Gram positive and negative bacteria is shown in the following Table. The assay employs a liquid turbidimetric microtiter method for the determination of the minimum inhibitory concentration (MIC) in brain heart infusion broth. […] The MIC is generally not an absolute value but rather a concentration ranged that falls within a two-fold dilution limit. Generally twelve two-fold dilutions of the test compound are employed with the initial concentration set at 128 mcg/ml.
# [2] = system: Staphylococcus aureus MB 2865; settings: MB2865, brain heart infusion broth
# Source text: as §1
# Escherichia coli MB 4926 = settings: MB4926, brain heart infusion broth
# Source text: as §1
# [3] = system: Staphylococcus haemolyticus MB 5412; settings: MB5412, brain heart infusion broth
# Source text: as §1
# [4] = system: Streptococcus agalactiae CL 1343; settings: CL1343, brain heart infusion broth
# Source text: as §1
# [5] = system: Enterococcus faecalis MB 5407; settings: MB5407, brain heart infusion broth
# Source text: as §1
# [6] = system: Yersinia enterocoltica CL 1598; settings: CL1598, brain heart infusion broth
# Source text: as §1
# [7] = system: Streptococcus pyogenes MB 2874; settings: MB2874, brain heart infusion broth
# Source text: as §1
# [8] = system: Staphylococcus epidermidis MB 5414; settings: MB5414, brain heart infusion broth
# Source text: as §1
# [9] = system: Pseudomonas stutzeri MB 1231; settings: Stutzerimonas stutzeri, MB1231, brain heart infusion broth
# Source text: as §1
# Escherichia coli MB 2884 = settings: MB2884, brain heart infusion broth
# Source text: as §1
# [10] = system: Klebsiella pneumoniae MB 4005; settings: MB4005, brain heart infusion broth
# Source text: as §1
# [11] = system: Steptococcus viridans CL 2943; settings: brain heart infusion broth
# Source text: as §1
# [12] = system: Enterococcus faecium MB 5416; settings: MB5416, brain heart infusion broth
# Source text: as §1
# [13] = system: Streptococcus pneumoniae CL 2883; settings: CL2883, brain heart infusion broth
# Source text: as §1
smiles,measurement,setting,value
"CC[C@H]1OC(=O)[C@H](C)[C@@H](O[C@H]2C[C@@](C)(OC)[C@@H](O)[C@H](C)O2)[C@H](C)[C@@H](O[C@@H]2O[C@H](C)C[C@H](N(C)C)[C@H]2O)[C@](C)(O)C[C@@H](C)NC(=O)[C@H](C)[C@@H](O)[C@]1(C)O [(III), 8a-aza-8a-homoerythromycin A]",MIC,[1],128 µg/mL
same,MIC,[2],1 µg/mL
same,MIC,Escherichia coli MB 4926,4 µg/mL
same,MIC,[3],2 µg/mL
same,MIC,[4],0.25 µg/mL
same,MIC,[5],16 µg/mL
same,MIC,[6],64 µg/mL
same,MIC,[7],≤ 0.06 µg/mL
same,MIC,[8],2 µg/mL
same,MIC,[9],0.12 µg/mL
same,MIC,Escherichia coli MB 2884,32 µg/mL
same,MIC,[10],64 µg/mL
same,MIC,[11],4 µg/mL
same,MIC,[12],≤ 0.06 µg/mL
same,MIC,[13],≤ 0.06 µg/mL
